Measurements as given in patent publication US20240124483A1, “Methods for the Treatment of Fibrotic Disease” (SHY Therapeutics, LLC, priority 2021, published 2024).
Where two headings read alike, the source gives them in different places.

Tests used:
[1] = tested on: MAPK p38; experiment: MAPK p38 Activation Assay in Panc-1 (western blot); type: cell-based, Human; set-up: key: Y = yes; N = No; conditions: at 10 μM
Description: (§1) Cell lines: Human tumor-derived pancreatic cancer cell line Panc-1 and mouse muscle myoblast C2C12 were purchased from American Type Culture Collection and grown in complete DMEM-High Glucose, supplemented with penicillin (100 U/mL), streptomycin (100 μg/mL), and 10% heat-inactivated FBS at 37° C. in a humidified incubator with 5% CO2.
(§2) Method: Cells were plated at 350000 cells/well density in a 12-well plate, allowed 3 hours to adhere to the plate, then starved in the appropriate medium in the presence of 0.5% FBS overnight. The small molecules to be tested were added to the cells in the final concentration of 10 μM in the presence of 0.3% DMSO for 3 hours incubation at 37° C. For IC50 value determination, serial dilutions of compounds were added to cells under the same conditions. Next, Panc-1 cells were stimulated with 10 ng/ml TGF-b1 for 1 hour, and C2C12 cells were stimulated with 10 ng/ml TGF-b1 for 20 minutes (recombinant human TGF-b1, R&D Systems). After stimulation cells were lysed with lysis buffer containing 1% Triton X-100, EDTA, and Halt™ Protease & Phosphatase Inhibitor Cocktail (Thermo Scientific). Protein concentration was assessed by BCA protein assay (Thermo Scientific). Phosphorylation level of MAPK p38 was determined by western blot.
(§3) Western blot protocol: Equal amounts of protein (15-50 μg) were separated by SDS-PAGE and transferred to nitrocellulose membranes (Invitrogen by Thermo Fisher Scientific). The membrane was stained with Ponceau S Stain (Boston BioProducts) to verify uniform protein loading. Membranes were blocked with 10% milk and phosphorylation levels of Smad2/Smad3 were assessed by incubating overnight at 4° C. with the following antibody: Phospho-p38 MAPK (Thr180/Tyr182), from Cell Signaling Technology. Then the membranes were incubated with HRP-conjugated secondary antibody (Jackson Immunoresearch, West Grove, PA). Bands were incubated in Amersham ECL Prime Western Blotting Detection Reagent (GE Healthcare) and visualized using the ChemiDoc MP imaging system (Bio-Rad).

[2] = tested on: JNK; experiment: JNK Activation Assay in Panc-1 (western blot); type: cell-based, Human; set-up: key: Y = yes; N = No; conditions: at 10 μM
Description: as §1
as §2, with “JNK” for “MAPK p38”
as §3, with “Smad2, Smad3, INK and p38” for “Smad2/Smad3”, “Phospho-SAPK/JNK (Thr183/Tyr185),” for “Phospho-p38 MAPK (Thr180/Tyr182),”

[3] = biological target: Rac-1 (Homo sapiens (Human), UniProt P63000); experiment: Ras GTP Binding Domain Inhibition Assay, Rac-1
Description: (§4) A Ras Superfamily Activity Assay (as disclosed in International Application No. PCT/US2018/038613, filed Jun. 20, 2018, which is incorporated by reference in its entirety) was used as a specific assay to evaluate compounds against the following for the following Ras Superfamily proteins: KRas wild type, KRas Q61H mutant, KRas G12C mutant, KRas G12D mutant, Rac-1, and Rho-A.
(§5) Buffer-I: • 25 mM Tris-HCl, pH 7.4 • 27 mM KCl • 137 mM NaCl • 1 mM MgCl2 • 1 mM DTT
(§6) Buffer-II: • 50 mM Tris-HCl, pH 7.0 • 1 mM MgCl2 • 1 mM DTT
(§7) The small GTPases proteins: KRas wild type. KRas Q61H mutant, KRas G12C mutant, KRas G12D mutants, Rac-1, and Rho-A were expressed as His-tagged proteins. In addition, the Guanosine nucleotide Exchange Factor (GEF) Sos protein (residues 556-1049) was expressed as a His-tagged protein. In cells, the guanine nucleotide exchange factor Sos protein promotes activation of Ras proteins by stimulating an exchange of GDP for GTP. The inclusion of Sos to the Ras GTP binding domain inhibition assay may be considered as an alternative representation of physiological cellular conditions for evaluating the inhibitory activity of some of the tested small molecules.
(§8) For the assay, all purified small GTPases proteins were diluted in Buffer-I or Buffer-II to a final concentration of 10-30 μg/mL. 200 μL of each diluted protein was added to a nickel-coated 96-well plate and incubated overnight at 4° C. Then the protein solution was discarded and 200 μL of Buffer-I or Buffer-II was added to each well in the presence of 1% DMSO. Compounds to be tested were added to the protein-coated wells at final concentration of 20 μM, and incubated for 3 hours at room temperature with and without 10-30 μg/mL of Sos added to the final hour of the incubation. When performing IC50 measurements a serial dilution of all tested concentrations was added. Then Cy3-GTP or Cy5-GTP was added to each well to a final concentration of 100 nM. The labeled GTP was incubated for 45 minutes at room temperature. Following GTP incubation, wells were washed 3× in Buffer-I or Buffer-II and 200 μL of Buffer-I or Buffer-II was added to each well. Following washes, the amount of bound labeled-GTP was measured using a SpectraMax M3 (Molecular Devices).

[4] = biological target: Rho-A (Homo sapiens (Human), UniProt P61586); experiment: Ras GTP Binding Domain Inhibition Assay, Rho-A
Sequence of Rho-A (P61586 whole entry, species assumed, the tested form may be a part): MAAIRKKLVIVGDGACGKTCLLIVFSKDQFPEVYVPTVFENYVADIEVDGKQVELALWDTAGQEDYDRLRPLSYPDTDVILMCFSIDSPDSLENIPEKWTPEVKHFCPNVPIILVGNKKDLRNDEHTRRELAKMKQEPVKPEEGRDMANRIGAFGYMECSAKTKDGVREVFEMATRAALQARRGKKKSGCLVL
Description: as §4, §5, §6, §7, §8

[5] = biological target: KRas wild type (Homo sapiens (Human), UniProt P01116); experiment: Ras GTP Binding Domain Inhibition Assay, KRas wild type
Sequence of KRas wild type (P01116 other isoform, or with tags, fused parts or gaps): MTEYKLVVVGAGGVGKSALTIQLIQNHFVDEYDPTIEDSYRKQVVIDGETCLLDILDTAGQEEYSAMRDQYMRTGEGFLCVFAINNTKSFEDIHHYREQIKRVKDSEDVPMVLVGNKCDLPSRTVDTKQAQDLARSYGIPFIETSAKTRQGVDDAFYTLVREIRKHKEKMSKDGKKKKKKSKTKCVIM
Description: as §4, §5, §6, §7, §8

[6] = without SOS, read-out: Rac-1: % inh.
[7] = without SOS, read-out: Rho-A: % inh.
[8] = + SOS, read-out: KRas wild type + SOS: % inh.
[9] = without SOS, read-out: KRas wild type: % inh.

| Structure (SMILES) | Activation of MAPK p38 in PANC-1 [1] | Activation of JNK in PANC-1 [2] | inhibition at 20 µM [3, 6] | inhibition at 20 µM [4, 7] | inhibition at 20 µM [5, 8] | inhibition at 20 µM [5, 9] | inhibition at 20 µM ([3]; + SOS, read-out: Rac-1 + SOS: % inh.) | inhibition at 20 µM ([4]; + SOS, read-out: Rho-A + SOS: % inh.) |
| --- | --- | --- | --- | --- | --- | --- | --- | --- |
| COCC1(OC)CCN(c2nc(-c3nccn3C)nc3sc(-c4ccn(C(C)C)n4)c(C)c23)C1 (racemic) [Compound 27, rac-6-(1-Isopropyl-1H-pyrazol-3-yl)-4-(3-methoxy-3-(methoxymethyl)pyrrolidin-1-yl)-5-methyl-2-(1-methyl-1H-imidazol-2-yl)thieno[2,3-d]pyrimidine] | Y | Y | 1 to 25% | 46 to 75% | 76 to 100% | 76 to 100% | – | – |
| COCCn1ccc(-c2sc3nc(-c4nccn4C)nc(NC[C@H]4CC[C@H]4COC)c3c2C)n1 (racemic) [Compound 38, rac-6-(1-(2-Methoxyethyl)-1H-pyrazol-3-yl)-N-(((1S,2R)-2-(methoxymethyl)cyclobutyl)methyl)-5-methyl-2-(1-methyl-1H-imidazol-2-yl)thieno[2,3-d]pyrimidin-4-amine] | Y | Y | 1 to 25% | 26 to 45% | 76 to 100% | 46 to 75% | – | – |
| COCCn1ccc(-c2sc3nc(-c4nccn4C)nc(N[C@@H]4CC[C@H](OC)C4)c3c2C)n1 (racemic) [Compound 39, rac-N-((1R,3S)-3-Methoxycyclopentyl)-6-(1-(2-methoxyethyl)-1H-pyrazol-3-yl)-5-methyl-2-(1-methyl-1H-imidazol-2-yl)thieno[2,3-d]pyrimidin-4-amine] | Y | Y | 26 to 45% | 46 to 75% | 76 to 100% | 76 to 100% | – | – |
| COc1cccc(-c2sc3nc(-c4nccn4C)nc(N[C@@H]4CC[C@@H](OC)C4)c3c2-c2ccccc2)c1F (racemic) [Compound 41, 6-(2-Fluoro-3-methoxyphenyl)-N-((1R,3R)-3-methoxycyclopentyl)-2-(1-methyl-1H-imidazol-2-yl)-5-phenylthieno[2,3-d]pyrimidin-4-amine] | Y | Y | 1 to 25% | 0% | 76 to 100% | 26 to 45% | – | – |
| COc1cccc(-c2sc3nc(-c4nccn4C)nc(N[C@@H]4CC[C@@H](OC)C4)c3c2C)c1F (racemic) [Compound 43, rac-6-(2-Fluoro-3-methoxyphenyl)-N-((1R,3R)-3-methoxycyclopentyl)-5-methyl-2-(1-methyl-1H-imidazol-2-yl)thieno[2,3-d]pyrimidin-4-amine] | Y | Y | 1 to 25% | 26 to 45% | 76 to 100% | 26 to 45% | – | – |
| COc1cc(-c2sc3nc(-c4nccn4C)nc(N[C@@H]4CC[C@H](OC)C4)c3c2-c2ccccc2)ccn1 (racemic) [Compound 44, rac-N-((1R,3S)-3-Methoxycyclopentyl)-6-(2-methoxypyridin-4-yl)-2-(1-methyl-1H-imidazol-2-yl)-5-phenylthieno[2,3-d]pyrimidin-4-amine] | N | Y | 0% | 0% | 76 to 100% | 46 to 75% | – | – |
| COc1cc(-c2sc3nc(-c4nccn4C)nc(N[C@@H]4CC[C@@H](OC)C4)c3c2-c2ccccc2)ccn1 (racemic) [Compound 47, N-((1R,3R)-3-Methoxycyclopentyl)-6-(2-methoxypyridin-4-yl)-2-(1-methyl-1H-imidazol-2-yl)-5-phenylthieno[2,3-d]pyrimidin-4-amine] | N | Y | 46 to 75% | 46 to 75% | 76 to 100% | 76 to 100% | – | – |
| CO[C@@H]1CC[C@H](Nc2nc(-c3nccn3C)nc3sc(-c4ccn(C(C)C)n4)c(-c4ccccc4)c23)C1 (single isomer, unassigned) [Compound 11] | Y | Y | 1 to 25% | 26 to 45% | 76 to 100% | 46 to 75% | 26 to 45% | 26 to 45% |
| COCCNc1nc(-c2nccn2C)nc2sc(-c3ccccc3)c(-c3ccccc3)c12 [Compound 1, N-(2-Methoxyethyl)-2-(1-methyl-1H-imidazol-2-yl)-5,6-diphenylthieno[2,3-d]pyrimidin-4-amine] | N | Y | 76 to 100% | 46 to 75% | 1 to 25% | 1 to 25% | – | – |
| COCCN(C)c1nc(-c2nccn2C)nc2sc(-c3ccccc3)c(-c3ccccc3)c12 [Compound 2, N-(2-Methoxyethyl)-N-methyl-2-(1-methyl-1H-imidazol-2-yl)-5,6-diphenylthieno[2,3-d]pyrimidin-4-amine] | Y | Y | 26 to 45% | 26 to 45% | – | 46 to 75% | – | – |
| COCCCNc1nc(-c2nccn2C)nc2sc(-c3ccccc3)c(-c3ccccc3)c12 [Compound 3, N-(3-Methoxypropyl)-2-(1-methyl-1H-imidazol-2-yl)-5,6-diphenylthieno[2,3-d]pyrimidin-4-amine] | Y | Y | 46 to 75% | 46 to 75% | 1 to 25% | 46 to 75% | – | – |
